Laboratory results taken from the supplement of paper PMC12350171.

Experiments:
[1] = test system: Com21 synthetic gut community; assay: community biomass OD578 after 24 h drug treatment relative to untreated (fraction of untreated control); higher = more community growth; settings: community: Com21 (Com20 + E. coli ED1a)
Method: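 Com21 (Com20 plus E. coli ED1a) was treated with drug for 24 h under anaerobic conditions in mGAM. Community OD578 was then measured and normalised to untreated Com21; mean of 3 biological replicates.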

Streptococcus salivarius = assay: IC25 growth inhibition; higher = less potent
Outline: (§1)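 Under anaerobic conditions, OD578 was read hourly in a plate reader for at least three biological replicates of monocultures grown overnight in mGAM. Each culture started at an OD578 of 0.01 in pre-reduced plates holding twofold drug dilutions and 1% DMSO (or water). IC25 was reported as a tested interval: the lowest concentration where the monotonic median area under the growth curve dropped below the cutoff. That cutoff was 0.75.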

Clostridium ramosum = assay: IC25 growth inhibition; higher = less potent
Outline: as §1

Collinsella aerofaciens = assay: IC25 growth inhibition; higher = less potent
Outline: as §1

Bacteroides uniformis = assay: IC25 growth inhibition; higher = less potent
Outline: as §1

[2] = test system: Bacteroides thetaiotaomicron; assay: IC25 growth inhibition; higher = less potent
Outline: as §1

[3] = test system: Yersinia pseudotuberculosis; assay: IC25 growth inhibition; higher = less potent
Outline: as §1

Shigella flexneri = assay: IC25 growth inhibition; higher = less potent
Outline: as §1

Escherichia coli ED1a = assay: IC25 growth inhibition; higher = less potent
Outline: as §1

Bacteroides vulgatus = assay: IC25 growth inhibition; higher = less potent
Outline: as §1

[4] = test system: Streptococcus parasanguinis; assay: IC25 growth inhibition; higher = less potent
Outline: as §1

Clostridium perfringens = assay: IC25 growth inhibition; higher = less potent
Outline: as §1

[5] = test system: Yersinia enterocolitica WA-314; assay: IC25 growth inhibition; higher = less potent
Outline: as §1

Parabacteroides merdae = assay: IC25 growth inhibition; higher = less potent
Outline: as §1

[6] = test system: Clostridium saccharolyticum; assay: IC25 growth inhibition; higher = less potent
Outline: as §1

Coprococcus comes = assay: IC25 growth inhibition; higher = less potent
Outline: as §1

Bacteroides fragilis NT = assay: IC25 growth inhibition; higher = less potent
Outline: as §1

Dorea formicigenerans = assay: IC25 growth inhibition; higher = less potent
Outline: as §1

[7] = test system: Fusobacterium nucleatum subsp. Nucleatum; assay: IC25 growth inhibition; higher = less potent
Outline: as §1

Ruminococcus gnavus = assay: IC25 growth inhibition; higher = less potent
Outline: as §1

[8] = test system: Salmonella enterica typhimurium; assay: IC25 growth inhibition; higher = less potent
Outline: as §1

Eubacterium rectale = assay: IC25 growth inhibition; higher = less potent
Outline: as §1

Clostridium bolteae = assay: IC25 growth inhibition; higher = less potent
Outline: as §1

Roseburia intestinalis = assay: IC25 growth inhibition; higher = less potent
Outline: as §1

Vibrio cholerae = assay: IC25 growth inhibition; higher = less potent
Outline: as §1

[9] = drug pretreatment concentration 10 µM
[10] = drug pretreatment concentration 20 µM
[11] = drug pretreatment concentration 40 µM
[12] = drug pretreatment concentration 80 µM
[13] = drug pretreatment concentration 160 µM
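For IC25 growth inhibition in this document: lowest concentration where monotonic median growth AUC falls below 0.75 of drug-free control.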

Structure (SMILES) | community biomass OD578 [1, 9] | community biomass OD578 [1, 10] | community biomass OD578 [1, 11] | community biomass OD578 [1, 12] | community biomass OD578 [1, 13] | IC25 growth inhibition (Streptococcus salivarius) [µM] | IC25 growth inhibition (Clostridium ramosum) [µM] | IC25 growth inhibition (Collinsella aerofaciens) [µM] | IC25 growth inhibition (Bacteroides uniformis) [µM] | IC25 growth inhibition [2] [µM] | IC25 growth inhibition [3] [µM] | IC25 growth inhibition (Shigella flexneri) [µM] | IC25 growth inhibition (Escherichia coli ED1a) [µM] | IC25 growth inhibition (Bacteroides vulgatus) [µM] | IC25 growth inhibition [4] [µM] | IC25 growth inhibition (Clostridium perfringens) [µM] | IC25 growth inhibition [5] [µM] | IC25 growth inhibition (Parabacteroides merdae) [µM] | IC25 growth inhibition [6] [µM] | IC25 growth inhibition (Coprococcus comes) [µM] | IC25 growth inhibition (Bacteroides fragilis NT) [µM] | IC25 growth inhibition (Dorea formicigenerans) [µM] | IC25 growth inhibition [7] [µM] | IC25 growth inhibition (Ruminococcus gnavus) [µM] | IC25 growth inhibition [8] [µM] | IC25 growth inhibition (Eubacterium rectale) [µM] | IC25 growth inhibition (Clostridium bolteae) [µM] | IC25 growth inhibition (Roseburia intestinalis) [µM] | IC25 growth inhibition (Vibrio cholerae) [µM] | community biomass OD578 ([1]; drug pretreatment concentration 2.5 µM) | community biomass OD578 ([1]; drug pretreatment concentration 5 µM)
CCCc1nc2c(C)cc(-c3nc4ccccc4n3C)cc2n1Cc1ccc(-c2ccccc2C(=O)O)cc1 [Telmisartan] | 0.994 | 0.966 | 0.932 | 0.892 | 0.956 | ≤ 40 | ≤ 40 | > 160 | > 160 | > 160 | > 40 | > 40 | > 160 | > 160 | > 160 | > 160 | > 40 | > 160 | > 80 | > 80 | > 160 | > 80 | > 80 | > 160 | > 160 | > 80 | > 80 | > 160 | > 40 |  | 
CC(C)(C)c1ccc(C(O)CCCN2CCC(C(O)(c3ccccc3)c3ccccc3)CC2)cc1 (stereo not drawn) [Terfenadine] | 0.953 | 0.96 | 0.863 | 0.542 | 0.35 | ≤ 80 | > 80 | ≤ 20 | ≤ 80 | ≤ 80 | > 80 | > 80 | > 160 | ≤ 40 | ≤ 80 | ≤ 80 | > 40 | ≤ 80 | ≤ 40 | ≤ 80 | ≤ 80 | ≤ 20 | ≤ 80 | ≤ 20 | > 160 | ≤ 80 | ≤ 80 | ≤ 10 | > 40 |  | 
Nc1nc(=S)c2ncn([C@@H]3O[C@H](CO)[C@@H](O)[C@H]3O)c2[nH]1 [Thioguanosine] | 1.02 | 1.05 | 1.01 |  |  | > 40 | > 40 | > 40 | > 40 | > 40 | ≤ 20 | ≤ 2.5 | ≤ 2.5 | > 40 | > 40 | > 40 | > 40 | > 40 | > 40 | > 40 | > 40 | > 40 | > 40 | > 40 | > 40 | > 40 | > 40 | > 40 | > 40 | 1.01 | 1.01
NC[C@H]1O[C@H](O[C@H]2[C@H](O)[C@@H](O[C@H]3O[C@H](CO)[C@@H](O)[C@H](N)[C@H]3O)[C@H](N)C[C@@H]2N)[C@H](N)C[C@@H]1O [Tobramycin] | 1.01 | 0.969 | 0.972 | 0.983 | 0.992 | ≤ 5 | ≤ 160 | ≤ 10 | > 160 | > 160 | ≤ 20 | ≤ 40 | ≤ 20 | > 160 | ≤ 5 | ≤ 20 | ≤ 40 | > 160 | ≤ 10 | ≤ 40 | > 160 | > 160 | ≤ 80 | ≤ 40 | ≤ 160 | ≤ 20 | > 160 | ≤ 10 | ≤ 160 |  | 
Cc1c(Cl)cccc1Nc1ccccc1C(=O)O [Tolfenamic acid] | 0.991 | 0.971 | 0.962 | 0.923 | 0.864 | ≤ 160 | ≤ 80 | > 160 | ≤ 160 | ≤ 160 | > 160 | > 160 | > 160 | ≤ 80 | > 160 | ≤ 160 | > 160 | ≤ 40 | ≤ 160 | ≤ 80 | ≤ 80 | > 160 | ≤ 40 | ≤ 80 | > 160 | > 160 | > 160 | > 160 | ≤ 80 |  | 
CCOC1O[C@H]([C@@H](COCc2ccccc2)OCc2ccccc2)[C@H](OCc2ccccc2)[C@H]1O (stereo partly drawn) [Tribenoside] | 0.995 | 0.955 | 0.976 | 0.945 | 0.947 | > 80 | > 40 | > 40 | > 40 | > 40 | > 40 | > 40 | > 20 | > 40 | > 40 | > 80 | ≤ 160 | > 40 | > 80 | > 40 | > 40 | > 20 | > 40 | > 40 | > 40 | > 40 | > 80 | > 80 | > 40 |  | 
COc1cc(C(=O)NS(=O)(=O)c2ccccc2C)ccc1Cc1cn(C)c2ccc(NC(=O)OC3CCCC3)cc12 [Zafirlukast] | 0.904 | 0.876 | 0.825 | 0.81 | 0.841 | ≤ 10 | ≤ 10 | ≤ 80 | ≤ 80 | ≤ 80 | > 80 | > 160 | > 160 | ≤ 40 | ≤ 20 | ≤ 10 | > 80 | ≤ 40 | ≤ 80 | ≤ 20 | ≤ 80 | ≤ 40 | > 80 | ≤ 20 | > 80 | ≤ 80 | ≤ 80 | ≤ 20 | > 80 |  | 
